Tests used:
Format in all cases: in vivo
[1] = test system: morningglory (Ipomoea spp.); assay: Test A pre-/postemergence: morningglory; settings: for Morningglory plant response rating: Postemergence; for Plant response rating, Morningglory: Preemergence
Method in brief: (§1)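 Injury is scored visually on a scale where 0 means no effect and 100 complete control, comparing treated with untreated plants after approximately ten greenhouse days. Both preemergence and postemergence applications are made at the same time.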

[2] = test system: sedge, umbrella (small-flower umbrella sedge, Cyperus difformis); assay: Test C flooded paddy test: sedge, umbrella; settings: scale 0 to 100 (0 no effect, 100 complete control)
Method in brief: (§2)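 Greenhouse plants treated at the 2-leaf stage by dosing the flood water (3 cm depth, maintained) were compared with controls after 13 to 15 days and rated 0 to 100, where 100 means complete control; a dash marks no test result.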

[3] = test system: foxtail, giant (giant foxtail, Setaria faberii); assay: Test A pre-/postemergence: foxtail, giant; settings: for Foxtail, Giant plant response rating: Postemergence; for Plant response rating, Foxtail, Giant: Preemergence
Method in brief: as §1

rice (Oryza sativa) = assay: Test C flooded paddy test: rice; settings: scale 0 to 100 (0 no effect, 100 complete control)
Method in brief: as §2

[4] = test system: barnyardgrass (Echinochloa crus-galli); assay: Test C flooded paddy test: barnyardgrass; settings: scale 0 to 100 (0 no effect, 100 complete control)
Method in brief: as §2

[5] = test system: crabgrass, large (large crabgrass, Digitaria sanguinalis); assay: Test A pre-/postemergence: crabgrass, large; settings: for Crabgrass, Large plant response rating: Postemergence; for Plant response rating, Crabgrass, Large: Preemergence
Method in brief: as §1

[6] = test system: barnyardgrass (Echinochloa crus-galli); assay: Test A pre-/postemergence: barnyardgrass; settings: for Barnyardgrass plant response rating: Postemergence; for Plant response rating, Barnyardgrass: Preemergence
Method in brief: as §1

[7] = test system: pigweed (Amaranthus retroflexus); assay: Test A pre-/postemergence: pigweed; settings: for Pigweed plant response rating: Postemergence; for Plant response rating, Pigweed: Preemergence
Method in brief: as §1

[8] = test system: ducksalad (Heteranthera limosa); assay: Test C flooded paddy test: ducksalad; settings: scale 0 to 100 (0 no effect, 100 complete control)
Method in brief: as §2

corn (Zea mays) = assay: Test A pre-/postemergence: corn; settings: for Corn plant response rating: Postemergence; for Plant response rating, Corn: Preemergence
Method in brief: as §1

[9] = test system: wheat (Triticum aestivum); assay: Test A pre-/postemergence: wheat; settings: for Wheat plant response rating: Postemergence; for Plant response rating, Wheat: Preemergence
Method in brief: as §1

[10] = test system: velvetleaf (Abutilon theophrasti); assay: Test A pre-/postemergence: velvetleaf; settings: for Velvetleaf plant response rating: Postemergence; for Plant response rating, Velvetleaf: Preemergence
Method in brief: as §1

[11] = 125 g ai/ha, 0 to 100 scale, 0 is no effect, 100 is complete control
[12] = 500 g ai/ha, visual rating on 0 to 100 scale (0 no effect, 100 complete control), approximately ten days
[13] = 125 g ai/ha, 0 to 100 scale (0 no effect, 100 complete control)
[14] = 500 g ai/ha, 0 to 100 scale, 0 is no effect, 100 is complete control
[15] = Flood (flooded paddy test), 62 g ai/ha, visual rating after 13 to 15 days
[16] = Flood (flooded paddy test), 125 g ai/ha, visual rating after 13 to 15 days
[17] = Flood (flooded paddy test), 250 g ai/ha, visual rating after 13 to 15 days

Cc1nn(-c2ccc(F)cc2)nc1Oc1ccnc(OCC(F)(F)F)c1 [Compound 71]
10: Morningglory plant response rating [1, 11] | Morningglory plant response rating [1, 12] | Foxtail, Giant plant response rating [3, 11] | Foxtail, Giant plant response rating [3, 12] | Crabgrass, Large plant response rating [5, 11] | Crabgrass, Large plant response rating [5, 12] | Plant response rating, Crabgrass, Large [5, 14] | Barnyardgrass plant response rating [6, 12] | Pigweed plant response rating [7, 11] | Corn plant response rating (corn (Zea mays); [12]) | Velvetleaf plant response rating [10, 12]
40: Pigweed plant response rating [7, 12]
0: Plant response rating, Morningglory [1, 13] | Plant response rating, Morningglory [1, 14] | Plant response rating, Sedge, Umbrella [2, 15] | Plant response rating, Sedge, Umbrella [2, 16] | Plant response rating, Sedge, Umbrella [2, 17] | Plant response rating, Sedge, Umbrella ([2]; Flood, 31 g ai/ha) | Plant response rating, Foxtail, Giant [3, 13] | Plant response rating, Foxtail, Giant [3, 14] | Plant response rating, Rice (rice (Oryza sativa); [15]) | Plant response rating, Rice (rice (Oryza sativa); [16]) | Plant response rating, Rice (rice (Oryza sativa); [17]) | Plant response rating, Rice (rice (Oryza sativa); Flood, 31 g ai/ha) | Plant response rating, Barnyardgrass [4, 15] | Plant response rating, Barnyardgrass [4, 16] | Plant response rating, Barnyardgrass [4, 17] | Plant response rating, Barnyardgrass ([4]; Flood, 31 g ai/ha) | Plant response rating, Crabgrass, Large [5, 13] | Barnyardgrass plant response rating [6, 11] | Plant response rating, Barnyardgrass [6, 13] | Plant response rating, Barnyardgrass [6, 14] | Plant response rating, Pigweed [7, 13] | Plant response rating, Pigweed [7, 14] | Plant response rating, Ducksalad [8, 15] | Plant response rating, Ducksalad [8, 16] | Plant response rating, Ducksalad [8, 17] | Plant response rating, Ducksalad ([8]; Flood, 31 g ai/ha) | Corn plant response rating (corn (Zea mays); [11]) | Plant response rating, Corn (corn (Zea mays); [13]) | Plant response rating, Corn (corn (Zea mays); [14]) | Wheat plant response rating [9, 11] | Wheat plant response rating [9, 12] | Plant response rating, Wheat [9, 13] | Plant response rating, Wheat [9, 14] | Velvetleaf plant response rating [10, 11] | Plant response rating, Velvetleaf [10, 13] | Plant response rating, Velvetleaf [10, 14]

Cc1nn(-c2cncc(C(F)(F)F)c2)nc1C(=O)c1cccc(C(F)(F)F)c1 [Compound 66]
10: Morningglory plant response rating [1, 12] | Foxtail, Giant plant response rating [3, 12] | Plant response rating, Foxtail, Giant [3, 13] | Crabgrass, Large plant response rating [5, 11] | Crabgrass, Large plant response rating [5, 12] | Plant response rating, Crabgrass, Large [5, 13] | Barnyardgrass plant response rating [6, 12] | Pigweed plant response rating [7, 11] | Plant response rating, Pigweed [7, 14] | Corn plant response rating (corn (Zea mays); [12]) | Wheat plant response rating [9, 12] | Velvetleaf plant response rating [10, 12]
50: Plant response rating, Crabgrass, Large [5, 14]
70: Plant response rating, Foxtail, Giant [3, 14]
30: Pigweed plant response rating [7, 12]
0: Morningglory plant response rating [1, 11] | Plant response rating, Morningglory [1, 13] | Plant response rating, Morningglory [1, 14] | Plant response rating, Sedge, Umbrella [2, 15] | Plant response rating, Sedge, Umbrella [2, 17] | Foxtail, Giant plant response rating [3, 11] | Plant response rating, Rice (rice (Oryza sativa); [15]) | Plant response rating, Rice (rice (Oryza sativa); [17]) | Plant response rating, Barnyardgrass [4, 15] | Plant response rating, Barnyardgrass [4, 17] | Barnyardgrass plant response rating [6, 11] | Plant response rating, Barnyardgrass [6, 13] | Plant response rating, Barnyardgrass [6, 14] | Plant response rating, Pigweed [7, 13] | Plant response rating, Ducksalad [8, 15] | Plant response rating, Ducksalad [8, 17] | Corn plant response rating (corn (Zea mays); [11]) | Plant response rating, Corn (corn (Zea mays); [13]) | Plant response rating, Corn (corn (Zea mays); [14]) | Wheat plant response rating [9, 11] | Plant response rating, Wheat [9, 13] | Plant response rating, Wheat [9, 14] | Velvetleaf plant response rating [10, 11] | Plant response rating, Velvetleaf [10, 13] | Plant response rating, Velvetleaf [10, 14]
